pIC50: −log10 of the molar value. Where two headings read alike, the source gives them in different places.
Columns and labels:
[1] = Pharmacokinetic study in rats, intravenous (IV) administration; assay type: in vivo; conditions: male, SD, rat, plasma, IV administration at 1 mg/kg; for AUC(0-t): 0-24 h; for half-life: read-out: T½ (converted)
Experimental: (§1) Experimental Example 3: Pharmacokinetic Studies
(§2) To study the pharmacokinetic characteristics of test compounds, the test compounds were administrated by intravenous (IV) and gavage (PO) routes to male SD rats. The dosage for IV administration was 1 mg/kg, and that for PO administration was 0.5-5 mg/kg. The vehicle is 10% DMSO: 10% solutol: 80% physiological saline, or 5% DMSO: 5% solutol: 90% physiological saline, or 10% DMSO: 60% PEG: 30% physiological saline. Blood was collected at various time points after administration. Plasma samples were analyzed by LC-MS/MS after protein precipitation process with acetonitrile.

JAK1 = JAK1 (Homo sapiens (Human), UniProt P23458); test: JAK1 enzymatic inhibition assay (ADP-Glo luminescence); assay type: biochemical
Sequence of JAK1 (P23458 whole entry): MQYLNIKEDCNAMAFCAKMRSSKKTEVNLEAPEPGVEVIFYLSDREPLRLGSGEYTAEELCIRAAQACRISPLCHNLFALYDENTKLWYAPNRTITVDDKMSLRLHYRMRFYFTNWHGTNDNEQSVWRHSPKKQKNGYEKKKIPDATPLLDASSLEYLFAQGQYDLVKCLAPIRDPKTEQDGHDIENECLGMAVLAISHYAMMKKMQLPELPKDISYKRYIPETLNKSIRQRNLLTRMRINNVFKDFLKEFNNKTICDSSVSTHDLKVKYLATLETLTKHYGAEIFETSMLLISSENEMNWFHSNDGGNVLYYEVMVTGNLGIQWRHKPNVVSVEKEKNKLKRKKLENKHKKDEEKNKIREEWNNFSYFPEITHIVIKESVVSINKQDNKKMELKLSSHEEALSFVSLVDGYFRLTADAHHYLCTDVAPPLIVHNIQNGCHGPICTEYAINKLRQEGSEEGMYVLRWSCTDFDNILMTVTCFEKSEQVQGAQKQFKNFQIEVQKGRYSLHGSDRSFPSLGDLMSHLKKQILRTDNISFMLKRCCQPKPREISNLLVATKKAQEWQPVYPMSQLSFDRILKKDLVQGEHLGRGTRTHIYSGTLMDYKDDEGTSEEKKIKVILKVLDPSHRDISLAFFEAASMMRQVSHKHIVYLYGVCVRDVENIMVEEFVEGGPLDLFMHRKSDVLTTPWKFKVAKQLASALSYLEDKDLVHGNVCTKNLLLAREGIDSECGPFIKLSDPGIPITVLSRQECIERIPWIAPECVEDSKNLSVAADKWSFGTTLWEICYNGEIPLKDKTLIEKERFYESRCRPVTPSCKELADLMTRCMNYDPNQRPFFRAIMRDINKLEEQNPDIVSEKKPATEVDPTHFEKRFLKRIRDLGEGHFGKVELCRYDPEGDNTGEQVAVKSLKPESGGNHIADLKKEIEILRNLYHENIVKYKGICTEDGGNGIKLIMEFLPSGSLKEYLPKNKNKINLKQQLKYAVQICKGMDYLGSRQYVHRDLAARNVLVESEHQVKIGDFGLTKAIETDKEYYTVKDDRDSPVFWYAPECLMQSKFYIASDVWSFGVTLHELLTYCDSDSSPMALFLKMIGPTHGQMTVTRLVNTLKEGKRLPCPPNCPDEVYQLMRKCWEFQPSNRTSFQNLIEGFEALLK
Experimental: (§5) Test Materials • JAK1, JAK2, JAK3 and TYK2 enzymes were purchased from Life Technologies; and substrate GFP-STAT1 was purchased from Life Technologies.
(§6) Test compounds, enzymes, the substrate and ATP were diluted to the desired concentrations with the assay buffer (40 mM Tris-HCl, pH 7.4, 20 mM MgCl2, 0.1% BSA). The former three were added into a multiple well plate, and incubated at room temperature after being mixed homogeneously. ATP was added to initiate the kinase reaction, and incubation at room temperature was performed. ADP-Glo was added, and incubation at room temperature was performed. The kinase detector reagent was then added, and incubation at room temperature was performed. The luminescence intensity of each test group was detected, and the half maximal inhibitory concentration (IC50) value was calculated.

[2] = Pharmacokinetic study in rats, gavage (PO) administration; assay type: in vivo; conditions: male, SD, rat, plasma, po, gavage administration at 5 mg/kg, 0-24 h
Experimental: as §1, §2

CYP2D6 = CYP2D6 (Homo sapiens (Human), UniProt P10635); test: CYP450 enzyme test, Vivid CYP2D6 Cyan screening kit; assay type: in vitro ADME
Sequence of CYP2D6 (P10635 whole entry): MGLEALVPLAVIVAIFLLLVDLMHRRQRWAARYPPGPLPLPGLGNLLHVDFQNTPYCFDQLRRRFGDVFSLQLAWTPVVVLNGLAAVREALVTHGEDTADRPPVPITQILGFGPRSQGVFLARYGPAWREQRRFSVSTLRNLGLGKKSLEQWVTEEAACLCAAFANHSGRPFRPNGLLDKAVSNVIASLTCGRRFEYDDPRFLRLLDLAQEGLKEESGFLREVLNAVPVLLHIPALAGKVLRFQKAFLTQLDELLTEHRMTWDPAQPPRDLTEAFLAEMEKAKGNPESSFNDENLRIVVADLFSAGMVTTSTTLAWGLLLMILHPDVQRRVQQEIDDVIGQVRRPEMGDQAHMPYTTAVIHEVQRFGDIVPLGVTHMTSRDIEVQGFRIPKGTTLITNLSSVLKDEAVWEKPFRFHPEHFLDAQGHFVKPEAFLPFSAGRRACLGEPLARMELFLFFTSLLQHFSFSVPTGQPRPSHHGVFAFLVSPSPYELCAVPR
Description: (§3) CYP450 is the most important enzymatic system in drug metabolism. The enzymes involved in the metabolism interact with a drug, and mainly include CYP1A2, CYP2D6 and CYP3A4. In the CYP450 enzyme test, P450-Glo™ CYP1A2 screening system was employed to determine the inhibitory activity of compounds on CYP1A2 and CYP3A4. The Vivid® CYP2D6 Cyan screening kit was employed to determine the inhibitory activity of test compounds on CYP2D6.

CYP1A2 = CYP1A2 (Homo sapiens (Human), UniProt P05177); test: CYP450 enzyme test, P450-Glo screening system, CYP1A2; assay type: in vitro ADME; conditions: for pIC50: human; for IC50: read-out: IC50 (μM) CYP1A2
Sequence of CYP1A2 (P05177 whole entry): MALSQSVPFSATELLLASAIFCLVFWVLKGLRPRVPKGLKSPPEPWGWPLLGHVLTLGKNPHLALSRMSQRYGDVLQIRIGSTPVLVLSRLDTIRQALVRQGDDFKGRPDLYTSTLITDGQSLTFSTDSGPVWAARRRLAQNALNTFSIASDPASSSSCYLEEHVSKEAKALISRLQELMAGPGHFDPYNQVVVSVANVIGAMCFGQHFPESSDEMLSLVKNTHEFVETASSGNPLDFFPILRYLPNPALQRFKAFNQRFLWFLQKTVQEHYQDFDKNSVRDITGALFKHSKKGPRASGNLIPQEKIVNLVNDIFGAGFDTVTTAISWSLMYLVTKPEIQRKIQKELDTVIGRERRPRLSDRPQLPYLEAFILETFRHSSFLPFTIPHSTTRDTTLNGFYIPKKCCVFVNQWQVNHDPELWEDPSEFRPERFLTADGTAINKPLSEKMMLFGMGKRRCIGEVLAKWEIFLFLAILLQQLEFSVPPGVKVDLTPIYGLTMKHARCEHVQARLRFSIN
Description: as §3

CYP3A4 = CYP3A4 (Homo sapiens (Human), UniProt P08684); test: CYP450 enzyme test, P450-Glo screening system, CYP3A4; assay type: in vitro ADME
Sequence of CYP3A4 (P08684 whole entry): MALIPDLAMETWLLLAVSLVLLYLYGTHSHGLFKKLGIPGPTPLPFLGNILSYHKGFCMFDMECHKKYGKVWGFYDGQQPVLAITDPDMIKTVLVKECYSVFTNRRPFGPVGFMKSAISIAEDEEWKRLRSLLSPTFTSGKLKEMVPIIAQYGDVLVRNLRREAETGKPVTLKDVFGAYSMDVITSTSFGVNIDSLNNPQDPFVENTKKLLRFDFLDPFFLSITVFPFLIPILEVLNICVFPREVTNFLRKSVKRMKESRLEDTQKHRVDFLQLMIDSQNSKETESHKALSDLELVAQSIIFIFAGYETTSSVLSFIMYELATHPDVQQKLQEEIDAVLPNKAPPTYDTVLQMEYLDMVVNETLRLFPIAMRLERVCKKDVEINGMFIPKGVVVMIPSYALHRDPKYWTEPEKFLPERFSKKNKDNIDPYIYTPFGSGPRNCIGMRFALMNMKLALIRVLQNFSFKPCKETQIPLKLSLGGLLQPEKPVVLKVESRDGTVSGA
Description: as §3

hERG potassium channel = hERG potassium channel (Homo sapiens (Human), UniProt Q12809); test: Predictor hERG Fluorescence Polarization Assay; assay type: binding; conditions: tested at 3, 10 and 30 μM
Sequence of hERG potassium channel (Q12809 whole entry): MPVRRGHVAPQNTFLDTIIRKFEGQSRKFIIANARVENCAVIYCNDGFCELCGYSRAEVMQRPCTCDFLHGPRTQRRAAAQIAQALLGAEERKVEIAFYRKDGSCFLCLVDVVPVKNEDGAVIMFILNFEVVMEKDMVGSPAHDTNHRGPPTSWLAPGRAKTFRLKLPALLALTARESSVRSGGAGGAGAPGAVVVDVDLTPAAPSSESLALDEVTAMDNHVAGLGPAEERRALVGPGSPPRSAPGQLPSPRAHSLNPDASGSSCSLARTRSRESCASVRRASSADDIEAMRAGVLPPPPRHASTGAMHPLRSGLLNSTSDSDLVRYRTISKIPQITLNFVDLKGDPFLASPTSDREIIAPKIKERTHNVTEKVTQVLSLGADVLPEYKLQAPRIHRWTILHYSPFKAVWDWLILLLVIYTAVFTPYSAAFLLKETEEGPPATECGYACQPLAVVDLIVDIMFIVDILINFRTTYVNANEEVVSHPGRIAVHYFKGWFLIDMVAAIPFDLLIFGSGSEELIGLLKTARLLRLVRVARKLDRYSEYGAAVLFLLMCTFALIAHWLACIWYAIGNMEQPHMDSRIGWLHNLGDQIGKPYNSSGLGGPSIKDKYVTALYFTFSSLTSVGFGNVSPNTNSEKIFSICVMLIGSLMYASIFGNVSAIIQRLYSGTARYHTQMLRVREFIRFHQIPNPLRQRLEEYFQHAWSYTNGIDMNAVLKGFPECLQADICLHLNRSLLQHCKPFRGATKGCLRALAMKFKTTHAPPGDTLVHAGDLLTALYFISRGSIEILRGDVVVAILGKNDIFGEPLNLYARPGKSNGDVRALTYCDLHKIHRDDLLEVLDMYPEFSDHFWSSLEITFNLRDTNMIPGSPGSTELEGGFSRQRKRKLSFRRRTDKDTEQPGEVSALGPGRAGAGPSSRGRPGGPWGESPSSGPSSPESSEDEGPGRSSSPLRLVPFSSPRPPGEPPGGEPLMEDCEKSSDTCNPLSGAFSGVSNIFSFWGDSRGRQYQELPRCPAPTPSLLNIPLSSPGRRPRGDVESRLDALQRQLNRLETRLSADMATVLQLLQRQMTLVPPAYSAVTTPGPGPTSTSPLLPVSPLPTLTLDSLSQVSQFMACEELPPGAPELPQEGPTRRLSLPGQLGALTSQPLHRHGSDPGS
Experimental: Experimental Example 2: Safety Test
The effect of test compounds on hERG potassium channel were determined using Predictor™ hERG Fluorescence Polarization Assay at concentrations of 3, 10, and 30 μM.

JAK3 = JAK3 (Homo sapiens (Human), UniProt P52333); test: JAK3 enzymatic inhibition assay (ADP-Glo luminescence); assay type: biochemical
Sequence of JAK3 (P52333 whole entry): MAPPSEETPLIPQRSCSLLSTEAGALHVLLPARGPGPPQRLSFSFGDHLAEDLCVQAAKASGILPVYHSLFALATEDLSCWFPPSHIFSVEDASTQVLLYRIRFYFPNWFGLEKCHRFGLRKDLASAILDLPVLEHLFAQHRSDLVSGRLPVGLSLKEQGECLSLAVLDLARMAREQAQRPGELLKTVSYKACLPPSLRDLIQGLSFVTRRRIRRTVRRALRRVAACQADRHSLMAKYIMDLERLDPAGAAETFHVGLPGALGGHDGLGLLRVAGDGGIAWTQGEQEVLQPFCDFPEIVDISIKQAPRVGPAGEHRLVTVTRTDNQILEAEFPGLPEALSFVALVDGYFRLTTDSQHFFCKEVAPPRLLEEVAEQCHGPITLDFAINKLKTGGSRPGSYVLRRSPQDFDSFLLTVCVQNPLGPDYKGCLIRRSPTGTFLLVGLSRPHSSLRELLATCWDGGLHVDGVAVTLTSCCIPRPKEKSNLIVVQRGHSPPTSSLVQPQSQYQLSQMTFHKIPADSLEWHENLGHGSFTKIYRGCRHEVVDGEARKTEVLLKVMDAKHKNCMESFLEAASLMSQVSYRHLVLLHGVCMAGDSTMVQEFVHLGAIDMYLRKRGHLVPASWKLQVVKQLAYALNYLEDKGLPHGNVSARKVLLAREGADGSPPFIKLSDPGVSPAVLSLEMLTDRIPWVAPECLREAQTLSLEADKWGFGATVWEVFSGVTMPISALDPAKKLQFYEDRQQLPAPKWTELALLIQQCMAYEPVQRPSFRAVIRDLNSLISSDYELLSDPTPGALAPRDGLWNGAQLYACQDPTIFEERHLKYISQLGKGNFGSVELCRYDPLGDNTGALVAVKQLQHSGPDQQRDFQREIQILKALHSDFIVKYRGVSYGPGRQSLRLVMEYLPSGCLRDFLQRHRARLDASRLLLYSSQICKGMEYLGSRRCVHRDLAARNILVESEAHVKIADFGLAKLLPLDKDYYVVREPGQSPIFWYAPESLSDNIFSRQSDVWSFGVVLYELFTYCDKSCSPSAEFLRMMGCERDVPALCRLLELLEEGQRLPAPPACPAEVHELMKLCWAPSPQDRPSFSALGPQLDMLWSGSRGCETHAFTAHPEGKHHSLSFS
Description: (§4) Experimental Example 1: JAK1, JAK2, JAK3 and TYK2 Enzymatic Inhibition Assay

JAK2 = JAK2 (Homo sapiens (Human), UniProt O60674); test: JAK2 enzymatic inhibition assay (ADP-Glo luminescence); assay type: biochemical
Experimental: as §5, §6

TYK2 = TYK2 (Homo sapiens (Human), UniProt P29597); test: TYK2 enzymatic inhibition assay (LanthaScreen TR-FRET); assay type: biochemical
Experimental: as §4
As for the TYK2 enzyme, Tb-anti-pSTAT1 was added, and incubation at room temperature was performed.

AUC(0-t) [1] [ng·h/mL]	half-life [1] [h]	IC50 (JAK1) [nM]	AUC(0-t) [2] [ng·h/mL]	IC50 (CYP2D6) [µM]	pIC50 (CYP1A2)	IC50 (CYP3A4) [µM]	IC50 (JAK3) [nM]	IC50 (CYP1A2) [µM]	IC50 (JAK2) [nM]	IC50 (TYK2) [nM]	Structure (SMILES)	pIC50 (hERG potassium channel)
1390	7.1	0.69	5030	> 10	< 5.00	> 10	10.3	–	–	–	CS(=O)(=O)N1CC(CC#N)(n2cc(-c3ccnc4[nH]ccc34)cn2)C1 [Compound 19, 2-(3-(4-(1H-pyrrolo[2,3-b]pyridin-4-yl)-1H-pyrazol-1-yl)-1-(methylsulfonyl)azetidin-3-yl)acetonitrile]	< 4.52
–	–	2.29	–	> 10	–	> 10	> 30	> 10	0.83	> 30	CC(C)CS(=O)(=O)N1CC(CC#N)(n2cc(-c3ccnc4[nH]ccc34)cn2)C1 [Compound 25, 2-(3-(4-(1H-pyrrolo[2,3-b]pyridin-4-yl)-1H-pyrazol-1-yl)-1-(isobutylsulfonyl)azetidin-3-yl)acetonitrile]	< 4.52
3170	1.5	2.22	32200	–	–	–	36.5	–	2.16	58.2	N#CCC1(n2cc(-c3ccnc4[nH]ccc34)cn2)CN(S(=O)(=O)CCC(F)(F)F)C1 [Compound 30, 2-(3-(4-(1H-pyrrolo[2,3-b]pyridin-4-yl)-1H-pyrazol-1-yl)-1-((3,3,3-trifluoropropyl)sulfonyl)azetidin-3-yl)acetonitrile]	< 4.52
–	1.67	–	–	> 10	< 5.00	> 10	10 to 30	–	0.69	–	CCS(=O)(=O)N1CC(CC#N)(n2cc(-c3ncnc4[nH]ccc34)cc2C#N)C1 [Compound 39, 1-(3-(cyanomethyl)-1-(ethylsulfonyl)azetidin-3-yl)-4-(7H-pyrrolo[2,3-d]pyrimidin-4-yl)-1H-pyrrole-2-carbonitrile]	< 4.52
–	–	0.55	–	> 10	–	> 10	10 to 30	> 10	2.54	> 30	CC(C)S(=O)(=O)N1CC(CC#N)(n2cc(-c3c(C#N)cnc4[nH]ccc34)cn2)C1 [Compound 43, 4-(1-(3-(cyanomethyl)-1-(isopropylsulfonyl)azetidin-3-yl)-1H-pyrazol-4-yl)-1H-pyrrolo[2,3-b]pyridine-5-carbonitrile]	< 4.52
–	–	5.66	–	> 10	–	> 10	–	> 10	1.4	–	CCS(=O)(=O)N1CC(CC#N)(n2cc(-c3ccnc4[nH]ccc34)c(Cl)n2)C1 [Compound 48, 2-(3-(3-chloro-4-(1H-pyrrolo[2,3-b]pyridin-4-yl)-1H-pyrazol-1-yl)-1-(ethylsulfonyl)azetidin-3-yl)acetonitrile]	< 4.52
–	–	–	–	> 10	–	> 10	–	> 10	1.21	–	CCS(=O)(=O)N1CC(CC#N)(n2cc(-c3ncnc4[nH]ccc34)c(C)n2)C1 [Compound 49, 2-(1-(ethylsulfonyl)-3-(3-methyl-4-(7H-pyrrolo[2,3-d]pyrimidin-4-yl)-1H-pyrazol-1-yl)azetidin-3-yl)acetonitrile]	< 4.52
–	–	–	–	> 10	–	> 10	–	> 10	0.67	–	CCS(=O)(=O)N1CC(CC#N)(n2cc(-c3c(Cl)cnc4[nH]ccc34)cn2)C1 [Compound 50, 2-(3-(4-(5-chloro-1H-pyrrolo[2,3-b]pyridin-4-yl)-1H-pyrazol-1-yl)-1-(ethylsulfonyl)azetidin-3-yl)acetonitrile]	< 4.52
–	–	–	–	> 10	–	> 10	–	> 10	0.4	–	CCS(=O)(=O)N1CC(CC#N)(n2cc(-c3c(F)cnc4[nH]ccc34)cn2)C1 [Compound 52, 2-(1-(ethylsulfonyl)-3-(4-(5-fluoro-1H-pyrrolo[2,3-b]pyridin-4-yl)-1H-pyrazol-1-yl)azetidin-3-yl)acetonitrile]	< 4.52
